The record followed here is patent publication US20220142985A1, “AGENTS FOR TREATMENT OF ALCOHOL USE DISORDER” (SERVICIO ANDALUZ DE SALUD, priority 2018, published 2022).

SMILES strings stand for the structures.

One data set concerns adult male Wistar rats. The data set can be described thus: Alcohol self-administration model. It is filed as in vivo, rat. The settings on record: for EC50 for inhibition of alcohol self-administration: acute administration 30 minutes before the session, 10% alcohol, non-linear regression, IC = confidence interval. The procedure: (§1) For the alcohol self-administration studies, 48 adult male Wistar rats (8 per group) (Harlan, Barcelona, Spain) weighing 375-425 g at the start of the experiments were individually housed in a 12-hour light/dark cycle (turned off at 12:00 p.m.) in a room at constant temperature (23±1° C.). Standard food and tap water were available ad libitum in the house cage. The animals were allowed to acclimate to the housing facilities for 2 weeks before the beginning of the alcohol self-administration protocol. For oxycodone self-administration, male Long-Evans rats (275-325 g) (Charles-River Laboratories, Raleigh, N.C.) were used throughout this study. Upon arrival, they were individually housed in a facility for animals under an inverted 12-h light/dark cycle (light turned on at 7:00 p.m.) with free access to food and water. They were allowed to acclimate to the new environment for at least 7 days before the start of the study. For alcohol consumption in the two-bottle choice paradigm, male Wistar rats weighing 250 g at the start of the experiments, or genetically selected Marchigian Sardinian (msP) male rats that prefer alcohol were used.
Animals were trained for the alcohol self-administration as previously described (Cippitelli et al., 2005. Eur J Neurosci. 21 (8):2243-51), in the room (Letica, model LE 850, Panlab, Barcelona, Spain) enclosed in sound-attenuating cages and equipped with an exhaust fan. The chambers were equipped with two retractable levers, one located on each side of a water pan.
The active lever side is equally distributed between sessions to prevent the development of location preferences. […] All the operant alcohol sessions lasted for 30 minutes per day 5 d/week (Monday to Friday). The amount of responses and the immersion presentations were automatically recorded by the computer software. The animals were weighed daily before the alcohol self-administration sessions. Training was carried out using a modification of the conventional saccharin fading method (Samson et al., 1999) described in Alen et al., 2009 (Nicotine Tob Res. 11 (11): 1304-11). For the first 3 days of training, the animals received a 0.2% saccharin solution in the dipper to facilitate the acquisition of the lever pressure level. After that point, the following sequence in a fixed ratio 1 was used: 0.16% saccharin and 2% alcohol for three sessions, 0.12% saccharin and 4% alcohol for three sessions, 0.08% saccharin and 6% alcohol for four sessions, 0.04% saccharin and 8% alcohol for four sessions, 0.02% saccharin plus 10% alcohol, and finally 10% alcohol alone for the remaining sessions. The first investigation was relatively similar, followed by a period of at least 6 weeks with access to alcohol (10% w/v). ciglitazone (0.01, 1.5, and 20 mg/kg), OEA (0.1, 1.5, and 20 mg/kg), WY 14643 (0.1, 5, 20, and 40) mg/kg), rimonabant (0.03, 0.3, 1, and 3 mg/kg), OLHHA (0.01, 0.1, 1, and 5 mg/kg), and NF 10-360 (1 mg/kg). The medicinal products were injected 30 minutes before the self-administration session. The animals were then left for a period of 24 hours, and then 30 minutes daily. The EtOH self-administration sessions were resumed and monitored.
(§2) GraphPad Prism v5.04 (GraphPad Software, San Diego, Calif., USA). Data was represented by means±SEM. EC50 values for the inhibition of alcohol, cocaine, or oxycodone self-administration were calculated using built-in non-linear regression equations. Supplementation with alcohol and the analysis of the effects of variability (ANOVA) with repeated measures (factors: treatment and treatment). Plasma metabolic parameters, cytokines, and liver mRNA resulting from the circulation expression were analyzed by means of a two-way ANOVA (factors: treatment (vehicle/OLHHA) and access to beverage ([…]/water)), and a multiple post hoc comparison test (Bonferroni) was performed. The p-value less than 0.05 was considered to be statistically significant.

The test system of data set [1] is liver mRNA of lipogenic enzymes, cytochrome c oxidase 4 and PPARα. The data set can be described thus: Liver mRNA expression by RT qPCR after repeated OLHHA in msP rats. In kind it is in vivo, rat. The settings on record: 5 mg/kg daily. As for the experimental part:
(§3) Voluntary alcohol intake was evaluated in a two-bottle choice test, as previously described [Stopponi et al., 2011. Biol Psychiatry. 69(7):642-]. Wistar rats or rats selected due to their alcohol preference (msP) were trained to drink water, 10% alcohol (v/v) (Wistar), or 20% alcohol (msP) for 24 hours per day until reaching a stable alcohol intake baseline. At this point, the rats were divided into different groups (n=9-10/group) to be treated with vehicle, NF 10-360 (0 or 1 mg/kg), or OLHHA (5 mg/kg). In the case of msP rats, treatment with OLHHA continued for 14 consecutive days, and the drug or vehicle was administered once a day before the start of the dark period of the light/dark cycle. Intakes were recorded daily 2, 8, and 24 hours after the administration of OLHHA. Alcohol, water, and food intake were monitored daily. The animals were sacrificed on day 14, 2 hours after the last administration of OLHHA.
(§4) The rats were sacrificed 2 hours after the last dose. Treated animals and animals treated with OLHHA were anesthetized with sodium pentobarbital (50 mg kg-1, i.p.), and blood and liver samples were taken. The blood was centrifuged (2100 g for 8 min, 4° C.) and the plasma was kept for later analysis. The liver samples were rapidly frozen in liquid N^2 and stored at −80° C. until analysis.
Real-time quantitative polymerase chain reaction (RT qPCR) was used to measure the relative quantification of the mRNA levels of the enzymes and proteins related to the oxidation of hand lipogenic fatty acids, as described in previous studies with OLHHA. [Decara et al., 2015. Dis Model Mech. 8(10): 1213-25]. Total mRNA was isolated using the Trizol® method according to the manufacturer's instructions (Gibco BRL Life Technologies, Baltimore, Md., USA). Resulting cDNA was used as templates for RT qPCR with an iCycler system (BioRad) using the Quanti-Test SYBR Green PCR kit (Qiagen, Hilden, Germany). The […] were provided by Sigma-Proligo (Proligo France SAS, Paris, France). Quantification was performed according to the following criteria [Decara et al., 2015. Dis Model Mech. 8(10): 1213-25]. The absolute values of each sample were normalized to observe β-actin mRNA (constitutive gene), which was used as a standard reference.
GraphPad Prism v5.04 (GraphPad Software, San Diego, Calif., USA). Data was represented by means±SEM. EC50 values for the inhibition of alcohol, cocaine, or oxycodone self-administration were calculated using built-in non-linear regression equations. […] Plasma metabolic parameters, cytokines, and liver mRNA resulting from the circulation expression were analyzed by means of a two-way ANOVA (factors: treatment (vehicle/OLHHA) and access to beverage ([…]/water)), and a multiple post hoc comparison test (Bonferroni) was performed. […]
A general note: Quantitative PCR measures a nucleic acid by following its amplification.

The next data set has as its system Long-Evans rats. Description: Oxycodone self-administration. In kind it is in vivo, rat. Conditions: FIG. 3G. The procedure: as §1, with “used. […]” for “used.”
Oxycodone self-administration is carried out in an operant chamber with two response levers and a 15 W house light (Med Associates Inc., Georgia, Vt., USA). […] The response of each animal has been recorded throughout the entire training and testing process. […]

Data set [2] in a line: Plasma metabolite and cytokine measurements after repeated OLHHA in msP rats. In kind it is in vivo. The settings on record: 5 mg/kg daily. As for the experimental part: as §3, §4
The following metabolites, metabolic hormones, and cytokines were measured in plasma: metabolites glucose, triglycerides, cholesterol, uric acid, urea, creatinine, aspartate transaminase (GOT), alanine transaminase (GPT), interleukin-6, tumor necrosis factor α (TNF-a). They were analyzed in an automatic Hitachi 737 analyzer (Hitachi, Tokyo, Japan) according to the manufacturer's instructions. Levels of leptin, IL-6, and TNF-α were measured using commercial rat enzyme-linked immunosorbent assay kits (Abcam, Cambridge, United Kingdom).
as §2

Data set [3] deals with Marchigian Sardinian (msP) male rats. Description: Alcohol consumption in the two-bottle choice model (msP rats that prefer alcohol, 20% alcohol). In kind it is in vivo, rat. The settings on record: 5 mg/kg daily. As for the experimental part: as §1, §3
Another data set deals with Wistar rats. Description: Alcohol consumption in the two-bottle choice model (Wistar rats, 10% alcohol). It is filed as in vivo, rat. Conditions: 1 mg/kg, P<0.05, FIG. 2A. As for the experimental part:
as §1
Voluntary alcohol intake was evaluated in a two-bottle choice test, as previously described [Stopponi et al., 2011. […] Intakes were recorded daily 2, 8, and 24 hours after the administration of OLHHA. Alcohol, water, and food intake were monitored daily. […]

Turning to `CCCCCCCC/C=C\CCCCCCCC(=O)NCCO` [OEA, oleoylethanolamide], the “EC50 for inhibition of alcohol self-administration” value (shortened to “EC50 for inhibition”) in the data set with adult male Wistar rats is reported as 6.5 (IC=3.2 to 13.2) mg/kg.

Turning to `Cc1c(C(=O)NN2CCCCC2)nn(-c2ccc(Cl)cc2Cl)c1-c1ccc(Cl)cc1` [Rimonabant, rimonabant], in the data set with adult male Wistar rats, the “EC50 for inhibition” value is listed as 0.5 (IC=0.5 to 1.1) mg/kg. The “maximum inhibition of alcohol self-administration (rank among reference ligands)” value in the data set on adult male Wistar rats (reference ligands, FIG. 1) is given as “achieved maximum inhibition”.

With `Cc1cccc(Nc2cc(Cl)nc(SCC(=O)O)n2)c1C` [WY14643, pirinixic acid], the “EC50 for inhibition” value in the data set with adult male Wistar rats was 23.6 (IC=11.3 to 60.9) mg/kg.

As for `CCCCCCCC/C=C\CCCCCCCC(=O)NC(C)Cc1ccc(O)c(O)c1` (stereo not drawn) [OLHHA, N-[1-(3,4-dihydroxyphenyl)propan-2-yl]oleamide], the “expression of mRNA of Fasn in liver” value in data set [1] (P<0.001, FIG. 4M) is “inhibited”. For the same compound, in data set [1] (P<0.001, FIG. 4O), the “expression of PPAR receptor in liver” value is given as “increased”. In data set [1] (P<0.01), the “expression of mRNA of SCD1 in liver” value was “inhibited”. In data set [1] (P<0.01, FIG. 4N), the “expression of cytochrome c oxidase 4 in liver” value is listed as “increased”. Further, the “alcohol self-administration tested 24 hours after administration” value with adult male Wistar rats (24 hours after administration, FIG. 3B) is “absence of effects”. Further, the “EC50 for inhibition” value in the data set on adult male Wistar rats stood at 0.2 mg/kg. Also, the “maximum inhibition of oxycodone self-administration” value with Long-Evans rats is 45 % of the control responses. Moreover, the “EC50 for reduction of oxycodone self-administration” value in the data set with Long-Evans rats (non-linear regression, IC = confidence interval) amounted to 11.3 mg/kg. Moreover, the “toxicity: creatinine” value in data set [2] (msP rats, FIG. 4F) is listed as “no impact”. Also, the “inflammation: plasma concentrations of IL-6” value in data set [2] (msP rats, FIG. 4I) is listed as “no effect”. Further, the “inflammation: plasma concentrations of TNF” value in data set [2] (msP rats, FIG. 4J) is reported as “no effect”. For the same compound, the “toxicity: transaminases” value in data set [2] (msP rats, FIGS. 4G and 4H) was “no impact”. The circulating triglycerides entry in data set [2] (msP rats, P<0.001, FIG. 4B) is reported as “reduced”. Further, the circulating cholesterol entry in data set [2] (msP rats, P<0.001, FIG. 4C) was “reduced”. Also, the circulating uric acid result in data set [2] (msP rats, P<0.01, FIG. 4D) is on record as “reduced”. Moreover, the glucose levels entry in data set [2] (rats exposed to alcohol, P<0.02, FIG. 4A) is listed as “slightly reducing”. Further, the “total alcohol intake recorded throughout treatment” value in data set [3] (14 days, P<0.05, FIG. 3F) was “reduced significantly”. In addition, the “alcohol intake 2 hours after injection” value in data set [3] (P<0.0001, FIG. 3C) is recorded as “reduced alcohol intake”. The “alcohol intake 8 h after administration” value in data set [3] (P<0.001, FIG. 3D) is on record as “also observed”. In addition, the “alcohol intake after 24 h” value in data set [3] (P=0.047, FIG. 3E) is reported as “virtually disappeared”.

With `CC1(COc2ccc(CC3SC(=O)NC3=O)cc2)CCCCC1` (stereo not drawn) [ciglitazone], the “EC50 for inhibition” value in the data set with adult male Wistar rats is reported as 5.9 (IC=2.7 to 15.7) mg/kg.

As for `CCCCCNC(=O)c1ccc(NC(=O)c2cccc(CN3C(=O)OC[C@H]3Cc3ccccc3)c2)cc1` [NF 10-360, 3-((4-benzyl-2-oxooxazolidin-3-yl)methyl)-N-(4-(pentylcarbamoyl)phenyl)benzamide], the “operant responses to a 10% ethanol solution (alcohol self-administration)” value with adult male Wistar rats (1 mg/kg, P<0.01, FIG. 2B) is “reduced operant responses”. Besides, the voluntary alcohol intake result in the data set on Wistar rats is recorded as “reduced alcohol intake”.
